Experimental data from publication PMC8659078, “A Validated HPLC-PDA-HRMS Method to Investigate the Biological Stability and Metabolism of Antiparasitic Triterpenic Esters” (Molecules, 2021).
Counter-ions that a name gives are not always drawn.

How the values were obtained:
in vitro = settings: male, mouse, pooled liver microsomes, pH 7.4
[1] = parameters: method as in earlier work; settings: ref 3 (supplement); cited from earlier work
[2] = cited from earlier work

| Structure (SMILES) | bound to plasma proteins [2] | other results |
| --- | --- | --- |
| O=C(O)Cc1ccccc1Nc1c(Cl)cccc1Cl [Diclofenac, diclofenac sodium salt] |  | half-life (in vitro): 2.55 h |
| CCN(CC)CCOC(=O)c1ccc(N)cc1 [Procaine, Procaine hydrochloride] |  | time of hydrolysis by human plasma esterases into PABA [1]: ~ 10 min |
| C[C@H]1[C@H](C)CC[C@]2(C(=O)O)CC[C@]3(C)C(=CC[C@@H]4[C@@]5(C)C[C@@H](O)[C@H](O)[C@@](C)(CO)[C@@H]5CC[C@]43C)[C@H]12 [asiatic acid] | more than 95% |  |
| C=C(C)[C@@H]1CC[C@]2(C(=O)O)CC[C@]3(C)[C@H](CC[C@@H]4[C@@]5(C)CC[C@H](O)C(C)(C)[C@@H]5CC[C@]43C)[C@@H]12 [betulinic acid] | more than 95% |  |
| CC1(C)CC[C@]2(C(=O)O)CC[C@]3(C)C(=CC[C@@H]4[C@@]5(C)CC[C@H](O)C(C)(C)[C@@H]5CC[C@]43C)[C@@H]2C1 [oleanolic acid] | more than 95% |  |
| C[C@H]1[C@H](C)CC[C@]2(C(=O)O)CC[C@]3(C)C(=CC[C@@H]4[C@@]5(C)CC[C@H](O)C(C)(C)[C@@H]5CC[C@]43C)[C@H]12 [ursolic acid] | more than 95% |  |
